According to patent US20120245161A1 (SANOFI, priority 2009, published 2012):
Values joined by “and” are separate entries in the source; they are usually repeats but may differ in a detail not shown here. Equal entries are not always repeated. Structures can show the parent of a compound that is named as a salt. Where two headings read alike, the source gives them in different places.

Target: T1, recombinant human beta tryptase (Homo sapiens, UniProt P20231)
T1 construct: made in house; host or cells: yeast cells
Experiment: beta-Tryptase inhibition, chromogenic enzyme assay (substrate S2366, read at 405 nm)
Format: biochemical
From the text: Inhibition of this catalytic activity may be measured by the in vitro enzyme assay and the cellular assay.
Tryptase inhibition activity is confirmed using either isolated human lung tryptase or recombinant human beta tryptase expressed in yeast cells. Essentially equivalent results are obtained using isolated native enzyme or the expressed enzyme. The assay procedure employs a 96 well microplate (Costar 3590) using L-pyroglutamyl-L-prolyl-L-arginine-para-nitroanilide (S2366: Quadratech) as substrate (essentially as described by McEuen et. al. Biochem Pharm, 1996, 52, pages 331-340). Assays are performed at room temperature using 0.5 mM substrate (2×Km) and the microplate is read on a microplate reader (Beckman Biomek Plate reader) at 405 nm wavelength.
Materials and Methods for Tryptase primary screen (Chromogenic assay)
S2366 (Stock solutions of 2.5 mM).
Purified recombinant beta Tryptase Stocks of 310 μg/mL. Protocol (Single point determination) • Add 60 μL of diluted substrate (final concentration of 500 μM in assay buffer) to each well • Add compound in duplicates, final concentration of 20 volume 20 • Add enzyme at a final concentration of 50 ng/mL in a volume of 20 • Total volume for each well is 100 • Agitate briefly to mix and incubate at room temp in the dark for 30 minutes • Read absorbencies at […] Each plate has the following controls: • Totals: 60 μL of substrate, 20 μL of buffer (with 0.2% final concentration of DMSO), • 20 μL of enzyme Non-specific: 60 μL of substrate, 40 μL of buffer (with 0.2% DMSO) Totals: 60 μL of substrate, 20 μL of buffer (No DMSO), 20 μL of enzyme Non-specific: 60 μL of substrate, 40 μL of buffer (No DMSO) Protocol (IC50 and Ki determination)
The protocol is essentially the same as above except that the compound is added in duplicates at the following final concentrations: 0.01, 0.03, 0.1, 0.3, 1, 3, 10 μM (All dilutions carried out manually). For every assay, whether single point or IC50 determination, a standard compound is used to derive IC50 for comparison. From the IC50 value, the Ki can be calculated using the following formula: Ki=IC50/(1+[Substrate]/Km).

[1] = Tryptase Ki (nM), Ki calculated from IC50: Ki=IC50/(1+[Substrate]/Km), 0.5 mM substrate, room temperature

T1 sequence (P20231 31-275): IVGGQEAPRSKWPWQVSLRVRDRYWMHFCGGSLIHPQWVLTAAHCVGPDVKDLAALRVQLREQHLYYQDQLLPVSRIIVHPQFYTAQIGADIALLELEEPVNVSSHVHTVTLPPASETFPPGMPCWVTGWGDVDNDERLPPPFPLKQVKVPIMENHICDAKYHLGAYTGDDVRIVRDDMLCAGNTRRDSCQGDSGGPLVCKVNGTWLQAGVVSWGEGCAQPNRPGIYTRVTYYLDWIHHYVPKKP

Row | Compound | Ki [1] | also measured
1 | COCCn1cc(C(=O)N2CCC(c3cc(CN)ccc3F)CC2)c2cccc(OC(F)(F)F)c21 [Example 1, [4-(5-Aminomethyl-2-fluoro-phenyl)-piperidin-1-yl]-[1-(2-methoxy-ethyl)-7-trifluoromethoxy-1H-indol-3-yl]-methanone hydrochloride] | 47 nM | –
2 | Cc1cccc2c(C(=O)N3CCC(c4cccc(CN)c4)CC3)cn(CCN3CCOCC3)c12 [Example 2, [4-(3-Aminomethyl-phenyl)-piperidin-1-yl]-[7-methyl-1-(2-morpholin-4-yl-ethyl)-1H-indol-3-yl]-methanone hydrochloride] | 234 nM | –
3 | Cc1cccc2c(C(=O)N3CCC(c4cc(CN)ccc4F)CC3)cn(CCN3CCOCC3)c12 [Example 3, [4-(5-Aminomethyl-2-fluoro-phenyl)-piperidin-1-yl]-[7-methyl-1-(2-morpholin-4-yl-ethyl)-1H-indol-3-yl]-methanone hydrochloride] | 109 nM | –
4 | Cc1cccc2c(C(=O)N3CCC(c4cc(CN)ccc4F)CC3)cn(CCCc3ccccc3)c12 [Example 4, [4-(5-Aminomethyl-2-fluoro-phenyl)-piperidin-1-yl]-[7-methyl-1-(3-phenyl-propyl)-1H-indol-3-yl]-methanone hydrochloride] | 1300 nM | –
5 | Cc1cccc2c(C(=O)N3CCC(c4cc(CN)ccc4F)CC3)cn(CCc3ccccc3)c12 [Example 5, [4-(5-Aminomethyl-2-fluoro-phenyl)-piperidin-1-yl]-(7-methyl-1-phenethyl-1H-indol-3-yl)-methanone hydrochloride] | 96 nM and 56 nM | Ki (Tryptase Ki (nM), additional value in parentheses tagged "8923" (code not explained)): 11 nM
6 | COCCn1cc(C(=O)N2CCC(c3cc(CN)ccc3F)CC2)c2cccc(C3CC3)c21 [Example 6, [4-(5-Aminomethyl-2-fluoro-phenyl)-piperidin-1-yl]-[7-cyclopropyl-1-(2-methoxy-ethyl)-1H-indol-3-yl]-methanone hydrochloride] | 20 nM | –
7 | Cc1cccc2c(C(=O)N3CCC(c4cc(CN)ccc4F)CC3)cn(CCCN3CCOCC3)c12 [Example 7, [4-(5-Aminomethyl-2-fluoro-phenyl)-piperidin-1-yl]-[7-methyl-1-(3-morpholin-4-yl-propyl)-1H-indol-3-yl]-methanone hydrochloride] | 139 nM | –
8 | Cc1cccc2c(C(=O)N3CCC(c4cc(CN)ccc4F)CC3)cn(CCC3CCCCN3C)c12 (stereo not shown) [Example 8, [4-(5-Aminomethyl-2-fluoro-phenyl)-piperidin-1-yl]-{7-methyl-1-[2-(1-methyl-piperidin-2-yl)-ethyl]-1H-indol-3-yl}-methanone hydrochloride] | 35 nM | –
9 | COCCn1cc(C(=O)N2CCC(c3cc(CN)ccc3C(F)F)CC2)c2cccc(C)c21 [Example 9, [4-(5-Aminomethyl-2-difluoromethyl-phenyl)-piperidin-1-yl]-[1-(2-methoxy-ethyl)-7-methyl-1H-indol-3-yl]-methanone hydrochloride] | 203 nM | –
10 | Cc1cccc2c(C(=O)N3CCC(c4cc(CN)ccc4F)CC3)cn(CCCc3cccnc3)c12 [Example 10, [4-(5-Aminomethyl-2-fluoro-phenyl)-piperidin-1-yl]-[7-methyl-1-(3-pyridin-3-yl-propyl)-1H-indol-3-yl]-methanone dihydrochloride] | 175 nM | –
11 | COCCn1cc(C(=O)N2CCC(c3cc(CN)ccc3F)CC2)c2cccc(C(F)(F)F)c21 [Example 11, [4-(5-Aminomethyl-2-fluoro-phenyl)-piperidin-1-yl]-[1-(2-methoxy-ethyl)-7-trifluoromethyl-1H-indol-3-yl]-methanone hydrochloride] | 56 nM | –
12 | COCCn1cc(C(=O)N2CCC(c3cc(CN)ccc3F)CC2)c2cccc(C(F)F)c21 [Example 12, [4-(5-Aminomethyl-2-fluoro-phenyl)-piperidin-1-yl]-[7-difluoromethyl-1-(2-methoxy-ethyl)-1H-indol-3-yl]-methanone hydrochloride] | 26 nM | –
13 | Cc1cccc2c(C(=O)N3CCC(c4cc(CN)ccc4F)CC3)cn(CCN3CCCC3)c12 [Example 13, [4-(5-Aminomethyl-2-fluoro-phenyl)-piperidin-1-yl]-[7-methyl-1-(2-pyrrolidin-1-yl-ethyl)-1H-indol-3-yl]-methanone dihydrochloride] | – | Ki (Ki calculated from IC50: Ki=IC50/(1+[Substrate]/Km), 0.5 mM substrate, room temperature, read-out: Tryptase Ki): 75 nM
14 | COCCn1cc(C(=O)N2CCC(c3cc(CN)ccc3F)CC2)c2cccc(OC(F)F)c21 [Example 14, [4-(5-Aminomethyl-2-fluoro-phenyl)-piperidin-1-yl]-[7-difluoromethoxy-1-(2-methoxy-ethyl)-1H-indol-3-yl]-methanone hydrochloride] | 83 nM | –
15 | NCc1ccc(F)c(C2CCN(C(=O)c3cn(CCc4ccccc4)c4ccccc34)CC2)c1 [Example 15, [4-(5-Aminomethyl-2-fluoro-phenyl)-piperidin-1-yl]-(1-phenethyl-1H-indol-3-yl)-methanone hydrochloride] | 18 nM | –
16 | Cc1cccc2c(C(=O)N3CCC(c4cc(CN)ccc4F)CC3)cn(CCCF)c12 [Example 16, [4-(5-Aminomethyl-2-fluoro-phenyl)-piperidin-1-yl]-[1-(3-fluoro-propyl)-7-methyl-1H-indol-3-yl]-methanone hydrochloride] | 97 nM | –
17 | Cc1cccc2c(C(=O)N3CCC(c4cc(CN)ccc4F)CC3)cn(CCCO)c12 [Example 17, hydrochloride] | 37 nM | –
18 | COCCn1cc(C(=O)N2CCC(c3cc(CN)ccc3F)CC2)c2cccc(C#N)c21 [Example 18, 3-[4-(5-Aminomethyl-2-fluoro-phenyl)-piperidine-1-carbonyl]-1-(2-methoxy-ethyl)-1H-indole-7-carbonitrile] | 40 nM | –
19 | COCCn1cc(C(=O)N2CCC(c3cc(CN)ccc3F)CC2)c2cccc(C3CCC3)c21 [Example 19, [4-(5-Aminomethyl-2-fluoro-phenyl)-piperidin-1-yl]-[7-cyclobutyl-1-(2-methoxy-ethyl)-1H-indol-3-yl]-methanone hydrochloride] | 94 nM | –
20 | Cc1cccc2c(C(=O)N3CCC(c4cc(CN)ccc4F)CC3)cn(CCO)c12 [Example 20, [4-(5-Aminomethyl-2-fluoro-phenyl)-piperidin-1-yl]-[1-(2-hydroxy-ethyl)-7-methyl-1H-indol-3-yl]-methanone hydrochloride] | 19 nM | –
21 | Cc1cccc2c(C(=O)N3CCC(c4cc(CN)ccc4F)CC3)cn(CCOCCO)c12 [Example 21, [4-(5-Aminomethyl-2-fluoro-phenyl)-piperidin-1-yl]-{1-[2-(2-hydroxy-ethoxy)-ethyl]-7-methyl-1H-indol-3-yl}-methanone hydrochloride] | 28 nM | –
22 | NCc1ccc(F)c(C2CCN(C(=O)c3cn(CCO)c4c(OC(F)(F)F)cccc34)CC2)c1 [Example 22, [4-(5-Aminomethyl-2-fluoro-phenyl)-piperidin-1-yl]-[1-(2-hydroxy-ethyl)-7-trifluoromethoxy-1H-indol-3-yl]-methanone hydrochloride] | 390 nM | –
23 | COCCn1cc(C(=O)N2CCC(c3cc(CN)ccc3OCC(=O)OC)CC2)c2cccc(C)c21 [Example 23, (4-Aminomethyl-2-{1-[1-(2-methoxy-ethyl)-7-methyl-1H-indole-3-carbonyl]-piperidin-4-yl}-phenoxy)-acetic acid methyl ester hydrochloride] | 42 nM | –
24 | COCCn1cc(C(=O)N2CCC(c3cc(CN)ccc3OCC(=O)OC)CC2)c2cccc(OC(F)(F)F)c21 [Example 24, (4-Aminomethyl-2-{1-[1-(2-methoxy-ethyl)-7-trifluoromethoxy-1H-indole-3-carbonyl]-piperidin-4-yl}-phenoxy)-acetic acid methyl ester hydrochloride] | 98 nM | –
25 | COCCn1cc(C(=O)N2CCC(c3cc(CN)ccc3OCC(=O)N(C)C)CC2)c2cccc(C)c21 [Example 25, 2-(4-Aminomethyl-2-{1-[1-(2-methoxy-ethyl)-7-methyl-1H-indole-3-carbonyl]-piperidin-4-yl}-phenoxy)-N,N-dimethyl-acetamide hydrochloride] | 672 nM | –
26 | CNC(=O)COc1ccc(CN)cc1C1CCN(C(=O)c2cn(CCOC)c3c(C)cccc23)CC1 [Example 26, 2-(4-Aminomethyl-2-{1-[1-(2-methoxy-ethyl)-7-methyl-1H-indole-3-carbonyl]-piperidin-4-yl}-phenoxy)-N-methyl-acetamide hydrochloride] | 306 nM | –
27 | NCc1ccc(F)c(C2CCN(C(=O)c3cn(CCOCCO)c4c(OC(F)(F)F)cccc34)CC2)c1 [Example 27, [4-(5-Aminomethyl-2-fluoro-phenyl)-piperidin-1-yl]-{1-[2-(2-hydroxy-ethoxy)-ethyl]-7-trifluoromethoxy-1H-indol-3-yl}-methanone hydrochloride] | 164 nM | –
